Laboratory results published in patent US10450328B2, “Crystals of thiadiazole derivative DPP-IV inhibitors and uses thereof” (CHIA TAI TIANQING PHARMACEUTICAL GROUP CO., LTD., priority 2015, dated 2019).

Assays:
[1] = Stability test: experiments on influencing factors (light irradiation, high temperature, high humidity); assay type: physicochemical; conditions: for stability: result in words
Excerpt: Suitable amounts of the crystalline Form A obtained in Example 2 and the crystalline Form B obtained in Example 3 were taken to carry out experiments on influencing factors according to the methods described in the Chinese Pharmacopoeia, 2010 edition, Part II, Appendix.

Powder fluidity = assay type: physicochemical; conditions: result in words
DPP-IV = DPP-IV (Homo sapiens, UniProt P27487); conditions: result in words; cited from earlier work
[2] = result in words; cited from earlier work
[3] = High-humidity Test 92.5% RH, 5 days
[4] = High-humidity Test 92.5% RH, 10 days
[5] = High-temperature Test 40° C., 5 days
[6] = High-temperature Test 40° C., 10 days
[7] = High-temperature Test 60° C., 5 days
[8] = Light Irradiation Test 4500Lux, 5 days
[9] = Light Irradiation Test 4500Lux, 10 days
[10] = High-temperature Test 60° C., 5 days, 60 °C
[11] = High-temperature Test 60° C., 10 days, 60 °C

Chain of DPP-IV (P27487 whole entry, species assumed): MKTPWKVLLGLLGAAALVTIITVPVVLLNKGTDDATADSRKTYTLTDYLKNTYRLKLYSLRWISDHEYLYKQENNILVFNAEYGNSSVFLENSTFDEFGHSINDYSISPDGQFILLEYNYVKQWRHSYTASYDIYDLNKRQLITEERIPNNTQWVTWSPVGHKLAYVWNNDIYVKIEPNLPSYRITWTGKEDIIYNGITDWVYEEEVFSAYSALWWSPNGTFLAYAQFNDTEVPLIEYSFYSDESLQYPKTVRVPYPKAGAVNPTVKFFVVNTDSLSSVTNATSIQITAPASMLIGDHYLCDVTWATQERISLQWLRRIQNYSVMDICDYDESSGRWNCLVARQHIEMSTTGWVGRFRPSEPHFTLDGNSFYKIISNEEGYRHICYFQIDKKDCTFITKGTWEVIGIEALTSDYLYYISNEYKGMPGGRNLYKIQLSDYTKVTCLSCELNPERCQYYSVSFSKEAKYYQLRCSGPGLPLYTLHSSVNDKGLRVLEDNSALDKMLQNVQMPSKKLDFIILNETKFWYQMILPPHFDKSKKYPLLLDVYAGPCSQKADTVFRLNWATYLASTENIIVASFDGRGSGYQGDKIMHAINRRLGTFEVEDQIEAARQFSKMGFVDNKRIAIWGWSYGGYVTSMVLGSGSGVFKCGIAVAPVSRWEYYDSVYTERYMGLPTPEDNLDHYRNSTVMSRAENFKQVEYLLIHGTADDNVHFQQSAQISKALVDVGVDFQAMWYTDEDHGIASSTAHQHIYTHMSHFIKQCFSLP

Row | Relative Substances Main Peak % ([1]; 0 day) [%] | Relative Substances Maximum Single Impurity % ([1]; 0 day) [%] | Relative Substances Main Peak % [1, 3] [%] | Relative Substances Maximum Single Impurity % [1, 3] [%] | Relative Substances Main Peak % [1, 4] [%] | Relative Substances Maximum Single Impurity % [1, 4] [%] | Relative Substances Main Peak % [1, 5] [%] | Relative Substances Maximum Single Impurity % [1, 5] [%] | Relative Substances Main Peak % [1, 6] [%] | Relative Substances Maximum Single Impurity % [1, 6] [%] | Relative Substances Main Peak % [1, 8] [%] | Relative Substances Maximum Single Impurity % [1, 8] [%] | Relative Substances Main Peak % [1, 9] [%] | Relative Substances Maximum Single Impurity % [1, 9] [%] | stability [1] | powder fluidity (Powder fluidity) | SMILES | also measured
1 | 98.78 | 0.56 | 98.79 | 0.61 | 98.84 | 0.61 | 98.72 | 0.60 | 98.42 | 0.61 | 98.09 | 0.51 | 96.21 | 0.70 | excellent stability | good powder fluidity | CC#CCn1c(N2CCC[C@@H](N)C2)nc2c1c(=O)n(Cc1ccc3nsnc3n1)c(=O)n2C [crystalline Form A] | Relative Substances Main Peak % [1, 7]: 98.72%; Relative Substances Maximum Single Impurity % [1, 7]: 0.60%; Relative Substances Maximum Single Impurity % ([1]; High-temperature Test 60° C., 10 days): 0.61%; Relative Substances Main Peak % ([1]; High-temperature Test 60° C., 10 days, 60 °C high-temperature test): 98.74%
2 | 99.3 | 0.18 | 99.36 | 0.17 | 99.4 | 0.16 | 99.38 | 0.17 | 99.44 | 0.15 | 98.98 | 0.26 | 98.2 | 0.58 | excellent stability | good powder fluidity | CC#CCn1c(N2CCC[C@@H](N)C2)nc2c1c(=O)n(Cc1ccc3nsnc3n1)c(=O)n2C [crystalline Form B] | Relative Substances Main Peak % [1, 10]: 99.33%; Relative Substances Maximum Single Impurity % [1, 10]: 0.2%; Relative Substances Main Peak % [1, 11]: 99.12%; Relative Substances Maximum Single Impurity % [1, 11]: 0.24%
3 | – | – | – | – | – | – | – | – | – | – | – | – | – | – | – | – | CC#CCn1c(N2CCC[C@@H](N)C2)nc2c1c(=O)n(Cc1ccc3nsnc3n1)c(=O)n2C [Compound 7] | inhibitory activity against DPP-IV (DPP-IV): very good inhibitory activity; half-life in vivo [2]: suitable half-life in vivo; metabolic level in vivo [2]: very good metabolic level in vivo
